These results are taken from patent publication US20120121591A1 (priority 2009, published 2012).

Assay type in all cases: cell-based
The test system of assay [1] is IL-2 secretion from T cells in human whole blood. Particulars: read-out: WB (IL-2) IC50 (nM, Avg).
The target of a further assay is hKv1.3 (Homo sapiens, UniProt P22001). The experiment in a line: cell-based. The settings on record: Kv1.3 (IWQ) IC50 (nM, Avg).
For assay [2], the system named is IFN-g secretion from T cells in human whole blood.
Where [3] appears, read: read-out: WB (IFNg) IC50 (nM, Avg).
Where [4] appears, read: read-out: WB (IFNg) IC5- (nM, Avg).

Like-named read-outs stand apart in the source and are kept apart here. Positions of bridges follow the written chain, without caps; N, C: chain ends. Residues, ends and D or L forms follow the SMILES beside them.

Sequence of hKv1.3 (P22001 whole entry): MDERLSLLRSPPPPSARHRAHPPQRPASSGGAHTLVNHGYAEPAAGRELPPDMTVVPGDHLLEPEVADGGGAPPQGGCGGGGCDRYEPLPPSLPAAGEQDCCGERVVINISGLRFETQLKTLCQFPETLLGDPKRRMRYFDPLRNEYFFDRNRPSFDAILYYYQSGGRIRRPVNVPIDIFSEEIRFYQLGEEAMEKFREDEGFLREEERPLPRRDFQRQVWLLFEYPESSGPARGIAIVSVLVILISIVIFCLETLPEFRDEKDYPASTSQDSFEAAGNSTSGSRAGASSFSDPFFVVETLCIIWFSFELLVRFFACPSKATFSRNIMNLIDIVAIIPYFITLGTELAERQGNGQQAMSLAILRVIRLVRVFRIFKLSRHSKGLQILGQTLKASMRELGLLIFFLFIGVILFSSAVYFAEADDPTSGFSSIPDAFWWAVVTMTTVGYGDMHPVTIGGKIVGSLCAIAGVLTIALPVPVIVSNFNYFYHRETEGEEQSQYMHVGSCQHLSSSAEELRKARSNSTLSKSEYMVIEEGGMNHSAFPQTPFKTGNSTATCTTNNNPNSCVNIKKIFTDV

As to `CC[C@H](C)[C@@H]1NC(=O)[C@@H](NC(=O)[C@H](CO)NC(=O)[C@@H](N)CCCNC(=N)N)CSSC[C@@H](C(=O)O)NC(=O)[C@H]([C@@H](C)O)NC(=O)CNC(=O)[C@@H]2CSSC[C@@H]3NC(=O)[C@H](CCN)NC(=O)[C@H](Cc4ccccc4)NC(=O)[C@H](C)NC(=O)[C@H]([C@@H](C)O)NC(=O)[C@H](CSSC[C@H](NC(=O)[C@H](Cc4ccccc4)NC(=O)[C@H](CO)NC(=O)[C@H](CC(C)C)NC(=O)[C@H](CCCNC(=N)N)NC(=O)[C@H](Cc4ccc(O)cc4)NC(=O)[C@H](CCCCN)NC(=O)[C@H](CCSC)NC(=O)[C@H](CO)NC(=O)[C@H](Cc4c[nH]cn4)NC(=O)[C@H](CCCCN)NC3=O)C(=O)N[C@@H](CCCNC(=N)N)C(=O)N[C@@H](CCCCN)C(=O)N[C@@H]([C@@H](C)O)C(=O)N2)NC(=O)[C@H](CCCNC(=N)N)NC(=O)[C@H](CO)NC(=O)[C@H](CCCCN)NC(=O)[C@@H]2CCCN2C(=O)[C@H]([C@@H](C)CC)NC(=O)[C@H]([C@@H](C)O)NC(=O)[C@H](CC(=O)O)NC1=O` [[Dab16]ShK], the IC50 in assay [1] is 0.086 nM; on hKv1.3 it was 0.082 nM; in assay [2] (setting [3]), 0.223 nM.

Take `CC[C@H](C)[C@@H]1NC(=O)[C@@H](NC(=O)[C@H](CO)NC(=O)[C@@H](N)CCC(=O)O)CSSC[C@@H](C(=O)O)NC(=O)[C@H]([C@@H](C)O)NC(=O)CNC(=O)[C@@H]2CSSC[C@@H]3NC(=O)[C@H](CCC(N)=O)NC(=O)[C@H](Cc4ccccc4)NC(=O)[C@H](C)NC(=O)[C@H]([C@@H](C)O)NC(=O)[C@H](CSSC[C@H](NC(=O)[C@H](Cc4ccccc4)NC(=O)[C@H](CO)NC(=O)[C@H](CC(C)C)NC(=O)[C@H](CCCNC(=N)N)NC(=O)[C@H](Cc4ccc(O)cc4)NC(=O)[C@H](CCCCN)NC(=O)[C@H](CCSC)NC(=O)[C@H](CO)NC(=O)[C@H](Cc4c[nH]cn4)NC(=O)[C@H](CCCCN)NC3=O)C(=O)N[C@@H](CCCNC(=N)N)C(=O)N[C@@H](CCCCN)C(=O)N[C@@H]([C@@H](C)O)C(=O)N2)NC(=O)[C@H](CCCNC(=N)N)NC(=O)[C@H](CO)NC(=O)[C@H](CCCCN)NC(=O)[C@@H]2CCCN2C(=O)[C@H]([C@@H](C)CC)NC(=O)[C@H]([C@@H](C)O)NC(=O)[C@H](CC(=O)O)NC1=O` [[Glu1]ShK]: the IC50 came to 0.213 nM in assay [1], 0.144 nM against hKv1.3 and 0.249 nM in assay [2] (setting [4]).

With `CC[C@H](C)[C@@H]1NC(=O)[C@@H](NC(=O)[C@H](CCC(=O)O)NC(=O)[C@@H](N)CCCNC(=N)N)CSSC[C@@H](C(=O)O)NC(=O)[C@H]([C@@H](C)O)NC(=O)CNC(=O)[C@@H]2CSSC[C@@H]3NC(=O)[C@H](CCC(N)=O)NC(=O)[C@H](Cc4ccccc4)NC(=O)[C@H](C)NC(=O)[C@H]([C@@H](C)O)NC(=O)[C@H](CSSC[C@H](NC(=O)[C@H](Cc4ccccc4)NC(=O)[C@H](CO)NC(=O)[C@H](CC(C)C)NC(=O)[C@H](CCCNC(=N)N)NC(=O)[C@H](Cc4ccc(O)cc4)NC(=O)[C@H](CCCCN)NC(=O)[C@H](CCSC)NC(=O)[C@H](CO)NC(=O)[C@H](Cc4c[nH]cn4)NC(=O)[C@H](CCCCN)NC3=O)C(=O)N[C@@H](CCCNC(=N)N)C(=O)N[C@@H](CCCCN)C(=O)N[C@@H]([C@@H](C)O)C(=O)N2)NC(=O)[C@H](CCCNC(=N)N)NC(=O)[C@H](CO)NC(=O)[C@H](CCCCN)NC(=O)[C@@H]2CCCN2C(=O)[C@H]([C@@H](C)CC)NC(=O)[C@H]([C@@H](C)O)NC(=O)[C@H](CC(=O)O)NC1=O` [[Glu2]ShK], the IC50 in assay [1] was 0.029 nM; against hKv1.3, 0.111 nM; in assay [2] (setting [4]), 0.039 nM.

For the molecule `CC[C@H](C)[C@@H]1NC(=O)[C@H]([C@@H](C)O)NC(=O)[C@H](CC(=O)O)NC(=O)[C@H](CCC(=O)O)NC(=O)[C@@H](NC(=O)[C@H](CO)NC(=O)[C@@H](N)CCCNC(=N)N)CSSC[C@@H](C(N)=O)NC(=O)[C@H]([C@@H](C)O)NC(=O)CNC(=O)[C@@H]2CSSC[C@@H]3NC(=O)[C@H](CCCCN)NC(=O)[C@H](Cc4ccccc4)NC(=O)[C@H](C)NC(=O)[C@H]([C@@H](C)O)NC(=O)[C@H](CSSC[C@H](NC(=O)[C@H](Cc4ccccc4)NC(=O)[C@H](CO)NC(=O)[C@H](CC(C)C)NC(=O)[C@H](CCCNC(=N)N)NC(=O)[C@H](Cc4ccc(O)cc4)NC(=O)[C@H](CCCCN)NC(=O)[C@H](CCSC)NC(=O)[C@H](CO)NC(=O)[C@H](Cc4c[nH]cn4)NC(=O)[C@H](CCCNC(=N)N)NC3=O)C(=O)N[C@@H](CCCCN)C(=O)N[C@@H](CCCNC(=N)N)C(=O)N[C@@H]([C@@H](C)O)C(=O)N2)NC(=O)[C@H](CCCNC(=N)N)NC(=O)[C@H](CCC(=O)O)NC(=O)[C@H](CCC(=O)O)NC(=O)[C@@H]2CCCN2C1=O` [[Glu4,9,10; Lys16,29;Arg18, 30]ShK-amide] (H-RSCEDTIPEERCTAFKCRHSMKYRLSFCKRTCGTC-NH2; disulfide 3-35, 12-28, 17-32), the IC50 in assay [1] amounted to 0.204 nM; against hKv1.3, 0.059 nM; in assay [2] (setting [3]), 0.513 nM.

`CC[C@H](C)[C@@H]1NC(=O)[C@H]([C@@H](C)O)NC(=O)[C@H](CC(=O)O)NC(=O)[C@H](CCC(=O)O)NC(=O)[C@@H](NC(=O)[C@H](CO)NC(=O)[C@@H](N)CCCNC(=N)N)CSSC[C@@H](C(N)=O)NC(=O)[C@H]([C@@H](C)O)NC(=O)CNC(=O)[C@@H]2CSSC[C@@H]3NC(=O)[C@H](CCCCN)NC(=O)[C@H](Cc4ccccc4)NC(=O)[C@H](C)NC(=O)[C@H]([C@@H](C)O)NC(=O)[C@H](CSSC[C@H](NC(=O)[C@H](Cc4ccccc4)NC(=O)[C@H](CO)NC(=O)[C@H](CC(C)C)NC(=O)[C@H](CCCNC(=N)N)NC(=O)[C@H](Cc4ccc(O)cc4)NC(=O)[C@H](CCCCN)NC(=O)[C@H](CCSC)NC(=O)[C@H](CO)NC(=O)[C@H](Cc4c[nH]cn4)NC(=O)[C@H](CCCNC(=N)N)NC3=O)C(=O)N[C@@H](CCCCN)C(=O)N[C@@H](CCCNC(=N)N)C(=O)N[C@@H]([C@@H](C)O)C(=O)N2)NC(=O)[C@H](CCCNC(=N)N)NC(=O)[C@H](CO)NC(=O)[C@H](CCC(=O)O)NC(=O)[C@@H]2CCCN2C1=O` [[Glu4,9;Lys16,29;Arg18,30]ShK-amide] (H-RSCEDTIPESRCTAFKCRHSMKYRLSFCKRTCGTC-NH2; disulfide 3-35, 12-28, 17-32): the IC50 in assay [1] came to 0.151 nM; against hKv1.3, 0.062 nM; in assay [2] (setting [3]), 0.345 nM.

Take `CC[C@H](C)[C@@H]1NC(=O)[C@H]([C@@H](C)O)NC(=O)[C@H](CC(=O)O)NC(=O)[C@H](CCC(=O)O)NC(=O)[C@@H](NC(=O)[C@H](CO)NC(=O)[C@@H](N)CCCNC(=N)N)CSSC[C@@H](C(N)=O)NC(=O)[C@H]([C@@H](C)O)NC(=O)CNC(=O)[C@@H]2CSSC[C@@H]3NC(=O)[C@H](CCCCN)NC(=O)[C@H](Cc4ccccc4)NC(=O)[C@H](C)NC(=O)[C@H]([C@@H](C)O)NC(=O)[C@H](CSSC[C@H](NC(=O)[C@H](Cc4ccccc4)NC(=O)[C@H](CO)NC(=O)[C@H](CC(C)C)NC(=O)[C@H](CCCNC(=N)N)NC(=O)[C@H](Cc4ccc(O)cc4)NC(=O)[C@H](CCCCN)NC(=O)[C@H](CCSC)NC(=O)[C@H](CO)NC(=O)[C@H](Cc4c[nH]cn4)NC(=O)[C@H](CCCNC(=N)N)NC3=O)C(=O)N[C@@H](CCCCN)C(=O)N[C@@H](CCCNC(=N)N)C(=O)N[C@@H]([C@@H](C)O)C(=O)N2)NC(=O)[C@H](CCCNC(=N)N)NC(=O)[C@H](CCC(=O)O)NC(=O)[C@H](CCCCN)NC(=O)[C@@H]2CCCN2C1=O` [[Glu4,10; Lys16,29;Arg18,30]ShK-amide] (H-RSCEDTIPKERCTAFKCRHSMKYRLSFCKRTCGTC-NH2; disulfide 3-35, 12-28, 17-32): the IC50 in assay [1] came out at 0.114 nM; against hKv1.3, 0.064 nM; in assay [2] (setting [3]), 0.217 nM.

For `CCCC[C@@H]1NC(=O)[C@H](CO)NC(=O)[C@H](Cc2c[nH]cn2)NC(=O)[C@H](CCC(=O)O)NC(=O)[C@@H]2CSSC[C@@H]3NC(=O)[C@H]([C@@H](C)O)NC(=O)[C@H](CCCCN)NC(=O)[C@H](CCCNC(=N)N)NC(=O)[C@H](CSSC[C@H](NC(=O)[C@H](CCCNC(=N)N)NC(=O)[C@H](CO)NC(=O)[C@H](CCCCN)NC(=O)[C@@H]4CCCN4C(=O)[C@H]([C@@H](C)CC)NC(=O)[C@H]([C@@H](C)O)NC(=O)[C@H](CC(=O)O)NC(=O)[C@H](CCC(=O)O)NC(=O)[C@@H](NC(=O)[C@H](CO)NC(=O)[C@@H](N)CCCNC(=N)N)CSSC[C@@H](C(N)=O)NC(=O)[C@H]([C@@H](C)O)NC(=O)CNC3=O)C(=O)N[C@@H]([C@@H](C)O)C(=O)N[C@@H](C)C(=O)N[C@@H](Cc3ccccc3)C(=O)N[C@@H](CCCCN)C(=O)N2)NC(=O)[C@H](Cc2ccccc2)NC(=O)[C@H](CO)NC(=O)[C@H](CC(C)C)NC(=O)[C@H](CCCNC(=N)N)NC(=O)[C@H](Cc2ccc(O)cc2)NC(=O)[C@H](CCCCN)NC1=O` [[Glu4,18, Lys16,Nle21]ShK-amide], the values for the IC50 (in assay [1]; against hKv1.3; in assay [2] (setting [3])) were 0.603 nM, 0.239 nM and 0.934 nM, respectively.

With `CCCC[C@@H]1NC(=O)[C@H](CO)NC(=O)[C@H](Cc2c[nH]cn2)NC(=O)[C@H](CCC(=O)O)NC(=O)[C@@H]2CSSC[C@@H]3NC(=O)[C@H]([C@@H](C)O)NC(=O)[C@H](CCCCN)NC(=O)[C@H](CCCNC(=N)N)NC(=O)[C@H](CSSC[C@H](NC(=O)[C@H](CCCNC(=N)N)NC(=O)[C@H](CO)NC(=O)[C@H](CCCCN)NC(=O)[C@@H]4CCCN4C(=O)[C@H]([C@@H](C)CC)NC(=O)[C@H]([C@@H](C)O)NC(=O)[C@H](CC(=O)O)NC(=O)[C@H](CCC(=O)O)NC(=O)[C@@H](NC(=O)[C@H](CO)NC(=O)[C@@H](N)CCCNC(=N)N)CSSC[C@@H](C(N)=O)NC(=O)[C@H]([C@@H](C)O)NC(=O)CNC3=O)C(=O)N[C@@H]([C@@H](C)O)C(=O)N[C@@H](C)C(=O)N[C@@H](C)C(=O)N[C@@H](CCCCN)C(=O)N2)NC(=O)[C@H](Cc2ccccc2)NC(=O)[C@H](CO)NC(=O)[C@H](CC(C)C)NC(=O)[C@H](CCCNC(=N)N)NC(=O)[C@H](Cc2ccc(O)cc2)NC(=O)[C@H](CCCCN)NC1=O` [[Glu4,18,A1a15,Lys16,Nle21]ShK-amide], the IC50 in assay [1] came to 1.22 nM; on hKv1.3, 0.346 nM; in assay [2] (setting [3]) it was 1.6 nM.
